This experiment concerns MDA-MB-231 complex spheroids, growth inhibition. The experiment can be described thus: Anticancer human tumor MDA-MB-231 cell line growth inhibition [Asc].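 For all read-outs here: spheroids exposed to compounds for 7 days.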 The following applies: for viability, T/C: stronger effect = lower value. The procedure, abridged:
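Tumor cells were grown as complex spheroids with human endothelial cells (HUVEC) and human mesenchymal stem cells as stroma. Agents were tested alone and in combination, in half-log steps down from the clinical Cmax, or from 10 microM where Cmax was unknown.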

Molecules are shown by their SMILES. Several values for one entry are separate records, joined by “and”; a condition that tells them apart may be missing. Equal values may be shown once. Where only a bound is given, the exact number is not on record here.

Consider `COc1c(OCCCN2CCOCC2)ccc2c3n(c(=NC(=O)c4cnc(N)nc4)nc12)CCN3` + CNC(C)C(=O)NC1CN(S(=O)(=O)c2cccc(S(=O)(=O)N3CCC4CCC(C(=O)NC(c5ccccc5)c5ccccc5)N4C(=O)C(NC(=O)C(C)NC)C3)c2)CCC2CCC(C(=O)NC(c3ccccc3)c3ccccc3)N2C1=O, for which the IC50 (curve of first compound, second compound 0.01 µM) is below 0.00316 µM; the IC50 (curve of first compound, second compound 0.0316 µM) was below 0.00316 µM; the IC50 (curve of first compound, second compound 0.1 µM) was below 0.00316 µM; the IC50 (curve of first compound, second compound 0.316 µM) was below 0.00316 µM; the IC50 (curve of first compound, second compound 1 µM) was below 0.00316 µM. Further, the viability, T/C (second compound 0.01 µM, first compound 0.00316 µM) is 3.3%; the viability, T/C (second compound 0.01 µM, first compound 0.01 µM) was 4.73%; the viability, T/C (second compound 0.01 µM, first compound 0.0316 µM) was 3.39%; the viability, T/C (second compound 0.01 µM, first compound 0.1 µM) was 3.64%; the viability, T/C (second compound 0.01 µM, first compound 0.316 µM) is 2.42%; the viability, T/C (second compound 0.01 µM, first compound 1 µM) is 3.12%. In addition, the viability, T/C runs as follows: (second compound 0.0316 µM, first compound 0.00316 µM) 2.47%; (second compound 0.0316 µM, first compound 0.01 µM) 3.12%; (second compound 0.0316 µM, first compound 0.0316 µM) 1.48%; (second compound 0.0316 µM, first compound 0.1 µM) 1.69%; (second compound 0.0316 µM, first compound 0.316 µM) 1.21%; (second compound 0.0316 µM, first compound 1 µM) 1.12%. The viability, T/C (second compound 0.1 µM, first compound 0.00316 µM) was 2.16%; the viability, T/C (second compound 0.1 µM, first compound 0.01 µM) is 2.68%; the viability, T/C (second compound 0.1 µM, first compound 0.0316 µM) is 2.19%; the viability, T/C (second compound 0.1 µM, first compound 0.1 µM) was 1.47%; the viability, T/C (second compound 0.1 µM, first compound 0.316 µM) is 1.18%; the viability, T/C (second compound 0.1 µM, first compound 1 µM) was 0.78%. Further, the viability, T/C is, setting by setting: (second compound 0.316 µM, first compound 0.00316 µM) 1.32%; (second compound 0.316 µM, first compound 0.01 µM) 1.65%; (second compound 0.316 µM, first compound 0.0316 µM) 1.85%; (second compound 0.316 µM, first compound 0.1 µM) 1.41%; (second compound 0.316 µM, first compound 0.316 µM) 0.21%; (second compound 0.316 µM, first compound 1 µM) 0.62%. Moreover, the viability, T/C (second compound 1 µM, first compound 0.00316 µM) was 1.05%; the viability, T/C (second compound 1 µM, first compound 0.01 µM) is 1.1%; the viability, T/C (second compound 1 µM, first compound 0.0316 µM) is 0.84%; the viability, T/C (second compound 1 µM, first compound 0.1 µM) was 0.98%; the viability, T/C (second compound 1 µM, first compound 0.316 µM) is 0.77%; the viability, T/C (second compound 1 µM, first compound 1 µM) was 0.29%.
Turning to `O=C(c1cc(Cc2n[nH]c(=O)c3ccccc23)ccc1F)N1CCN(C(=O)C2CC2)CC1`, the viability, T/C is, setting by setting: (compound 0.0316 µM) 95.2% and 99.3% and 106%; (compound 0.1 µM) 97.2% and 86.9% and 110%; (compound 0.316 µM) 92.7% and 75.9% and 84.1%; (compound 1 µM) 90.8% and 88.9% and 83.6%; (compound 3.16 µM) 87% and 88.3% and 49%. In addition, under “curve of compound”, the IC50 is > 10 µM and 3.18 µM.
On to `O=C(c1cc(Cc2n[nH]c(=O)c3ccccc23)ccc1F)N1CCN(C(=O)C2CC2)CC1` + CCN1C(C(=O)NC23CCC(C(=O)O)(CC2)CC3)C(c2cccc(Cl)c2F)C2(C(=O)Nc3cc(Cl)ccc32)C12CCCCC2, for which the IC50 was above 10 µM (curve of first compound, second compound 0.03 µM); above 10 µM (curve of first compound, second compound 0.0949 µM); above 10 µM (curve of first compound, second compound 0.3 µM); above 10 µM (curve of first compound, second compound 0.949 µM); above 10 µM (curve of first compound, second compound 3 µM). In addition, the viability, T/C by setting is: (second compound 0.03 µM, first compound 0.0316 µM) 99.1%; (second compound 0.03 µM, first compound 0.1 µM) 93.9%; (second compound 0.03 µM, first compound 0.316 µM) 93.8%; (second compound 0.03 µM, first compound 1 µM) 88.2%; (second compound 0.03 µM, first compound 3.16 µM) 88.8%; (second compound 0.03 µM, first compound 10 µM) 73.8%. Besides, the viability, T/C is 106% (second compound 0.0949 µM, first compound 0.0316 µM); 104% (second compound 0.0949 µM, first compound 0.1 µM); 98.8% (second compound 0.0949 µM, first compound 0.316 µM); 99.5% (second compound 0.0949 µM, first compound 1 µM); 90.2% (second compound 0.0949 µM, first compound 3.16 µM); 77.3% (second compound 0.0949 µM, first compound 10 µM). Further, the viability, T/C runs as follows: (second compound 0.3 µM, first compound 0.0316 µM) 103%; (second compound 0.3 µM, first compound 0.1 µM) 103%; (second compound 0.3 µM, first compound 0.316 µM) 100%; (second compound 0.3 µM, first compound 1 µM) 97.5%; (second compound 0.3 µM, first compound 3.16 µM) 93%; (second compound 0.3 µM, first compound 10 µM) 80.3%. Further, the viability, T/C is 102% (second compound 0.949 µM, first compound 0.0316 µM); 107% (second compound 0.949 µM, first compound 0.1 µM); 103% (second compound 0.949 µM, first compound 0.316 µM); 101% (second compound 0.949 µM, first compound 1 µM); 97.9% (second compound 0.949 µM, first compound 3.16 µM); 80.7% (second compound 0.949 µM, first compound 10 µM). Besides, the viability, T/C was 99.1% (second compound 3 µM, first compound 0.0316 µM); 103% (second compound 3 µM, first compound 0.1 µM); 94.8% (second compound 3 µM, first compound 0.316 µM); 93.4% (second compound 3 µM, first compound 1 µM); 86.7% (second compound 3 µM, first compound 3.16 µM); 77.8% (second compound 3 µM, first compound 10 µM).
For the compound `NC1CCC(NC2CC2c2ccccc2)CC1` (stereo not drawn), the viability, T/C (compound 0.000316 µM) was 102% and 98.5% and 104%; the viability, T/C (compound 0.001 µM) was 108% and 99% and 105%; the viability, T/C (compound 0.00316 µM) was 105% and 98.7% and 107%; the viability, T/C (compound 0.01 µM) is 105% and 98.6% and 101%; the viability, T/C (compound 0.0316 µM) is 103% and 96.8% and 107%; the viability, T/C (compound 0.1 µM) is 104% and 98.3% and 99.8%. Besides, for the setting “curve of compound”, the IC50 is above 0.1 µM.

By IC50 is commonly meant the concentration needed to halve the response being measured. In general, viability, T/C refers to the result in the treated group divided by that in the control group, in per cent.
